Measurements taken from patent publication US5369111A, “Modulator agent and use thereof” (University of Vermont, priority 1992, dated 1994).
Entries after “also recorded” stand apart in the source; their conditions may differ. Where two headings read alike, the source gives them in different places.

What was measured:
[1] = Inhibition of population growth (cytotoxicity), MDR strain S180/A3; format: cell-based, mouse; details: mouse, s180/a3 cells; read-out: non-toxic concentration limit for the modulator
Text: (§1) The analogs were examined in a panel of tumor cell lines of both intrinsic and acquired drug resistance, as described in Table 1. The rat colon adenocarcinoma cell lines RCC-2 and RCC-5 (ref. 13) were maintained in Ham's F12 medium supplemented with 5% heat-inactivated, fetal bovine serum (Sterile Systems. Hyclone, Logan, Utah). The two rat colon cancer cell lines differ in their degree of cellular differentiation; whereas the RCC-2 cell line is undifferentiated, the RCC-5 cell line is highly mucinous. The human epidermoid carcinoma cell line KB-3-1 and its MDR variant KB-Vl, selected by VBL treatment (ref. 14; courtesy of M. Gottesman. National Cancer Institute), was maintained in DMEM medium supplemented with 10%, heat-inactivated, fetal bovine serum. The murine sarcoma cell line […] and its MDR strains A3 and A10 selected by ADM treatment (ref. 15; courtesy of T. Tritton, Dept. Pharmacology, Univ. Vermont). were maintained in DMEM medium supplemented with 10% heat-inactivated, horse serum (Hazelton Biolog. Lenexa, Kans.). Stock cultures were subcultured twice weekly upon reaching the late exponential phase of population growth: population doubling times were 18-24 h. Antibiotics were not used in stock or experimental cultures. The MDR cell strains were grown in drug-free media for 48 h prior to experimental use.
(§2) Mid-exponential cultures were used for all assays. The RCC-2 and RCC-5 cell lines were seeded into 24-well plates at 2×10^4 cells/well and allowed to attach to the substratum for 16-18 h prior to treatment. The S180 cell lines were seeded into culture tubes at 1×10^5 cells/ml and treated immediately. Cytotoxicity was determined by quantitation of population growth after 72 h incubation by electronic particle counter (Coulter Electronics, Hialeah, Fla.). The human tumor cell lines were used in a clonogenic assay for cytotoxicity. Cells were seeded at 300 cells/dish, incubated overnight and then treated. Colonies were scored 7-11 days later. In all assays of analog modulation of drug sensitivity, the analog was added minutes prior to the addition of cytotoxic drug.

[2] = Inhibition of population growth (cytotoxicity), MDR strain S180/A10; format: cell-based, mouse; details: mouse, s180/a10 cells; read-out: non-toxic concentration limit for the modulator
Text: as §1, §2

[3] = tested on: S180 cell system (S180, A3, A10); assay: Inherent cytotoxicity in the S180 cell system (S180, A3, A10); format: cell-based, murine; details: for IC50: Mus musculus; for inherent cytotoxicity / resistance profile (in words): S180, A3, A10
Text: as §1, §2
FIG. 2 represents the toxicity of the vinca alkaloid compounds to population growth. Vindoline, vincovaline or the analog, C-20'-deoxy vincovaline was added, at various concentrations, to S180 (.cndot.), A3 (o), or A10 (Δ) cell cultures. The population cell number was determined 72 hours later.

S180 cells, parental [4] = assay: Modulation of intrinsic drug resistance, parental S180; format: cell-based, murine; details: for modulation of sensitivity of parental S180 cells to VBL, VCR and ADM (in words): all three drugs; for effect on VBL toxicity in parental S180 cells (in words): 50-fold concentration range
Procedure, shortened: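 Parental S180 cells at 1×10^5 cells/ml treated with modulator (10^-6 M up to non-toxic IC10-20 or solubility limit) added minutes before VBL, VCR or ADM; growth counted electronically after 72 h. Sensitivity index = drug IC50 alone / drug IC50 with modulator; duplicates from two experiments.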

S180/A10 cells [5] = assay: Modulator potency in MDR cells: reversal of acquired resistance, S180/A10; format: cell-based, murine; details: A10 cells, 90 fold ADM resistance
Procedure, shortened: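 S180/A3 and S180/A10 MDR cells at 1×10^5 cells/ml exposed to a modulator concentration range, added minutes before VBL, VCR or ADM at parental-cell IC70s. Growth counted by electronic particle counter after 72 h. Value is the minimal modulator concentration restoring 70% growth inhibition; mean of 2-3 experiments.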

[6] = tested on: S180 MDR cell strains A3 and A10; assay: Modulation of acquired drug resistance in the S180 MDR cell strains A3 and A10; format: cell-based, murine; details: A3 and A10
Procedure, shortened: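 MDR S180 lines in tubes (1×10^5 cells/ml) exposed to graded modulator added minutes before ADM, VBL or VCR at parental IC70s (2.0×10^-7 M ADM, 1.5×10^-8 M VBL, 4.5×10^-8 M VCR). Growth counted electronically at 72 h. Reversing concentration = minimum modulator giving 70% inhibition; duplicates, two experiments.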

[7] = Inhibition of population growth of rat colon cancer cell lines RCC-2 and RCC-5; format: cell-based; details: rat, rcc-2 and rcc-5 cells; read-out: non-toxic concentration limit
Text: The analogs were examined in a panel of tumor cell lines of both intrinsic and acquired drug resistance, as described in Table 1. The rat colon adenocarcinoma cell lines RCC-2 and RCC-5 (ref. 13) were maintained in Ham's F12 medium supplemented with 5% heat-inactivated, fetal bovine serum (Sterile Systems. Hyclone, Logan, Utah). The two rat colon cancer cell lines differ in their degree of cellular differentiation; whereas the RCC-2 cell line is undifferentiated, the RCC-5 cell line is highly mucinous. The human epidermoid carcinoma cell line KB-3-1 and its MDR variant KB-Vl, selected by VBL treatment (ref. 14; courtesy of M. Gottesman. National Cancer Institute), was maintained in DMEM medium supplemented with 10%, heat-inactivated, fetal bovine serum. […]
Mid-exponential cultures were used for all assays. […] Cytotoxicity was determined by quantitation of population growth after 72 h incubation by electronic particle counter (Coulter Electronics, Hialeah, Fla.). […] Colonies were scored 7-11 days later. […]
FIG. 7 represents the toxicity of analog C-20'-deoxy vincovaline (A) and C-20'-deoxy deethyl vincovaline (B) to population growth of the rat colon adenocarcinoma cell lines. The congener was added at various concentrations to RCC-2 (.cndot.) and RCC-5 (Δ) cell cultures and the population cell number was determined 72 hours later. […]

RCC-2 and RCC-5 cells = assay: Modulation of intrinsic drug resistance, RCC-2 and RCC-5; format: cell-based, rat; details: at the non-toxic concentration limit of 1-2 μM
Description: as §2

RCC-2 cells = assay: Inhibition of population growth (cytotoxicity), rat colon adenocarcinoma RCC-2; format: cell-based; details: Rattus norvegicus; RCC-2, 72 h
Procedure, shortened: (§3)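 Mid-exponential cultures; RCC-2 and RCC-5 seeded 2×10^4 cells/well, attached 16–18 h before treatment; S180 lines seeded 1×10^5 cells/ml and treated at once. MDR strains drug-free 48 h before use. Population growth counted by electronic particle counter after 72 h exposure.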

RCC-5 cells = assay: Inhibition of population growth (cytotoxicity), rat colon adenocarcinoma RCC-5; format: cell-based; details: Rattus norvegicus; RCC-5, 72 h
Procedure, shortened: as §3

S180 cells, parental [8] = assay: Inhibition of population growth (cytotoxicity), S180 sarcoma, parental; format: cell-based, mouse; details: Mus musculus; for IC70: S-180, 72 h, parental S180; for IC50: S-180
Procedure, shortened: as §3

KB-3-1 cells = assay: Clonogenic assay for cytotoxicity, KB-3-1 parental; format: cell-based; details: Homo sapiens
Text: as §1, §2

S180/A3 cells = assay: Inhibition of population growth (cytotoxicity), MDR strain S180/A3; format: cell-based, mouse
Text: as §1, §2

S180/A10 cells [9] = assay: Inhibition of population growth (cytotoxicity), MDR strain S180/A10; format: cell-based, mouse; details: 4320 min
Text: as §1, §2

KB-V1 cells = assay: Clonogenic assay for cytotoxicity, MDR variant KB-V1; format: cell-based, human; details: for Relative resistance: IC50 in KB-V1 divided by IC50 of parental, Table I
Text: as §1, §2
FIG. 10 represents the potency of the analog C-20'-deoxy deethyl vincovaline as a modulator of the drug sensitivity of various cell lines: the parental S180 cell line: the two rat colon cancer cell lines, RCC-2 and RCC-5; and the human epidermoid carcinoma cell line KB-3-1 and its MDR cell strain KB-V1, which expresses very high levels of drug resistance (200-500 fold). The enhancement of sensitivity was calculated as the sensitivity index =IC50 of the drug alone divided by the IC50 of the drug+analog. The drugs examined were ADM (o), VBL (Δ), and VCR (.quadrature.). The cytotoxicity of drug and analog treatments in the KB cell lines were measured by cloning efficiencies. The arrows denote the non-toxic concentration limit of the analog in each cell line.

P388 R cells = assay: Viability (MTT test) of P388 R cells; format: cell-based, mouse; details: for resistance of P388 R cells to cytotoxic activity of the drug: FIGS. 12 to 14
Text: The sensitization of C-20'-deoxy C-20'-deethyl vincovaline (D-DEV) has been tested on sensitive and resistants P388 cell lines originating from mouse lympnoma.
The resistance to anticancerous drug has been induced on DBA2 mouses bearing P388 cells ascites and maintained by treatment with adryamycin.
This study has been carried out at least in triplicate.

[10] = listed as C-20'-deoxy Vincovaline
[11] = A3, IC50 resistant / IC50 parental, Table II, 4320 min
[12] = IC50 in S180/A3 divided by IC50 of parental, Table I
[13] = A10, IC50 resistant / IC50 parental, Table II
[14] = IC50 in S180/A10 divided by IC50 of parental, Table I

Structure (SMILES)	inherent cytotoxicity / resistance profile (in words) [3]	reversal of high level ADM resistance (in words) (S180/A10 cells [5])	modulation of cellular resistance to VBL, VCR and ADM in MDR cell strains (in words) [6]	IC50 (RCC-2 cells) [nM]	IC50 (RCC-5 cells) [nM]	IC70 (S180 cells, parental [8]) [nM]	IC50 (S180 cells, parental [8]; S180, parental, Table II) [nM]	IC50 (S180 cells, parental [8]; S180 parental, 72 h, Table I) [nM]	IC50 (KB-3-1 cells) [nM]	Relative resistance (S180/A3 cells; [11])	Relative resistance (S180/A3 cells; [12])	Relative resistance (S180/A10 cells [9]; [13])	Relative resistance (S180/A10 cells [9]; [14])	resistance of KB-V1 to the drug (KB-V1 cells) [fold]	Relative resistance (KB-V1 cells)	resistance of P388 R cells to cytotoxic activity of the drug (P388 R cells)	further results
CC[C@@]1(O)C[C@H]2CN(CCc3c([nH]c4ccccc34)[C@](C(=O)OC)(c3cc4c(cc3OC)N(C)[C@H]3[C@@](O)(C(=O)OC)[C@H](OC(C)=O)[C@]5(CC)C=CCN6CC[C@]43[C@@H]65)C2)C1 [vincovaline, C-14', 16', 20'-epi-VBL]	cross-resistance	limited in this activity by their own cytoxicity in the MDR cell lines	significant activity with MDR cells is coincident with its non-toxic concentration limit in each cell line														MNTC at 72 h [1]: 20 µM; MNTC at 72 h [2]: 50 µM; IC50 ([3]; S-180, S180 parental and MDR cell lines, read-out: IC50 (inhibition of cell growth)): > 10000 nM; modulation of sensitivity of parental S180 cells to VBL, VCR and ADM (in words) (S180 cells, parental [4]): sensitized the parental S180 cells to all three drugs; modulation of sensitivity of parental S180 cells to VBL, VCR and ADM (in words) (S180 cells, parental [4]; listed as Vincovaline): weak modulator of drug sensitivity; also recorded: poor modulator of drug sensitivity in the parental cell line; modulation of cellular resistance to VBL, VCR and ADM in MDR cell strains (in words) ([6]; listed as C-14', 16', 20'-epi-VBL): modulators of cellular resistance to VBL, VCR and ADM
CC[C@H]1C[C@H]2CN(CCc3c([nH]c4ccccc34)[C@](C(=O)OC)(c3cc4c(cc3OC)N(C)[C@H]3[C@@](O)(C(=O)OC)[C@H](OC(C)=O)[C@]5(CC)C=CCN6CC[C@]43[C@@H]65)C2)C1 [C-20'-deoxy vincovaline, C-20'-deoxy C-14', 16', 20'-epi-VBL]	very weak cytotoxic agent	reversing completely the high level ADM resistance (90 fold)	reverses MDR in the A3 and A10 cell strains, without evidence of drug-specificity														IC50 ([3]; S-180, read-out: IC50 (inhibition of cell growth)): > 10000 nM; inherent cytotoxicity / resistance profile (in words) ([3]; 16', 20'-epi-VBL): cross-resistance; non-toxic concentration limit (in words) ([3]; S180 cell system): beyond the limits of solubility; MNTC at 72 h [7]: 1000 to 2000 nM; effect on VBL toxicity in parental S180 cells (in words) (S180 cells, parental [4]): no effect on cell sensitivity to VBL; effect on VBL toxicity in parental S180 cells (in words) (S180 cells, parental [4]; [10]): no effect on VBL toxicity; modulation of VCR and ADM cytotoxicity in parental S180 cells (in words) (S180 cells, parental [4]): progressive sensitization of the cells to the drug with increasing analog concentrations; also recorded: similar, concentration-dependent enhancement of VCR and ADM cytotoxicity; also recorded: sensitizes S180 cells to ADM and VCR but not to VBL; modulation of VCR and ADM cytotoxicity in parental S180 cells (in words) (S180 cells, parental [4]; [10]): similar, concentration-dependent enhancement; modulation of VCR and ADM cytotoxicity in parental S180 cells (in words) (S180 cells, parental [4]; listed as C-29'-deoxy vincovaline): most potent modulator of intrinsic resistance to ADM and VCR; sensitization to VBL, VCR and ADM (RCC-2 and RCC-5 cells): 2- to 4 fold; modulation of cellular resistance to VBL, VCR and ADM in MDR cell strains (in words) ([6]; 16', 20'-epi-VBL): modulators of cellular resistance to VBL, VCR and ADM
COc1cccc2c1C(=O)c1c(O)c3c(c(O)c1C2=O)C[C@@](O)(C(=O)CO)C[C@@H]3O[C@H]1C[C@H](N)[C@H](O)[C@H](C)O1 [ADM, adriamycin]				10	50	200	100	100	15	15	15	90	90	≥ 200	500	resistance of P388 R cells to cytotoxic activity	adriamycin cytotoxicity in P388 R cells (P388 R cells; 0.17 to 4.31 μM, 37° C., 24 and 48 hours): lack of adriamycin cytotoxicity
CC[C@]1(O)C[C@@H]2CN(CCc3c([nH]c4ccccc34)[C@@](C(=O)OC)(c3cc4c(cc3OC)N(C)[C@H]3[C@@](O)(C(=O)OC)[C@H](OC(C)=O)[C@]5(CC)C=CCN6CC[C@]43[C@@H]65)C2)C1 [VBL, vinblastine]				3	8	15	8	8	1	3	3	15	15	≥ 200	200	resistance of P388 R cells to cytotoxic activity	vinblastine cytotoxicity towards P388 R cells (P388 R cells; 0.00055 to 0.11 μM, 24 hours): lack of vinblastine cytotoxicity
